# Measurements published in patent US8044213B2, “Thiazolyl-benzimidazoles” (Hoffmann-La Roche Inc., priority 2008, dated 2011).
# How the values were obtained:
# [1] = target: T1, GST-Plk1 (Homo sapiens, UniProt P53350); test: Biochemical Characterization Assay A (HTRF, phosphorylation of GST-p53); conditions: full-length GST-Plk1, GST-p53 substrate, HTRF signal
# T1 construct: Full-length, active GST-Plk1 was purified from Sf9 insect cells; made in house; host or cells: Sf9 insect cells
# Method: Full-length, active GST-Plk1 was purified from Sf9 insect cells, and full-length GST-p53 was purified in E. coli. Anti-phospho p53 antibody was purchased from Cell Signaling Technology. Europium-conjugated anti-rabbit antibody was purchased from PerkinElmer Life and Analytical Sciences. APC-conjugated anti-GST antibody was purchased from Prozyme.
# To two microliters of compound (0.6 nM-4 mM) in DMSO or plain DMSO for control wells, 38 microliters of 20 mM HEPES pH 7, 50 mM NaCl, 10 mM MgCl2, 0.5 mM TCEP, 0.1 mM sodium orthovanadate, 0.1 mg/ml BSA, and 0.05% Triton X-100 (Kinase Assay Buffer) were added. Eight microliters of the compound solution were added to a 384-well black microtiter plate, followed by six microliters of GST-p53 (17 ug/ml) and ATP (333 uM) in Kinase Assay Buffer. Six microliters of GST-Plk1 (3 ug/ml) in Kinase Assay Buffer were then added and the solution incubated at 37° C. for 35 minutes. Six microliters of solution containing 43 mM EDTA to stop the reaction and a 1:600 dilution of anti-phospho-p53 antibody in 20 mM HEPES pH 7, 50 mM NaCl, and 0.5 mg/ml BSA (Antibody Binding Buffer) were added and the solution incubated at 37° C. for 30 minutes. Six microliters of solution containing 9 nM europium-conjugated anti-rabbit antibody and 120 nM APC-conjugated anti-GST antibody in Antibody Binding Buffer were then added and the mixture incubated at room temperature for 1.5 hours. The HTRF signal was read on the Envision reader (PerkinElmer Life and Analytical Sciences).
# (§1) The IC50 values for each compound were generated using an Excel template. The % conversion readings of Total and Blank were used as 0% and 100% inhibition. The percent inhibition values of reactions in the presence of compounds were calculated, and plotted against compound concentrations. All data were fitted into a Dose Response One Site model (4 parameter logistic model) as the following: (A+4B−A)/(1+((x/C)^13)))), with A and B as the bottom and top of the curve (highest and lowest inhibition), respectively, and C as IC50 and D as Hill Coefficient of the compound.
# [2] = target: T2, PLK1 (Homo sapiens, UniProt P53350); test: Biochemical Characterization Assay B (peptide substrate, LABCHIP EZ Reader II); conditions: PLK1, peptide RRRAGALMDASFEEQ-CONH2, % conversion on LABCHIP EZ Reader II
# T2 construct: Full-length, active GST-Plk1 was purified from Sf9 insect cells; GST (N); made in house; host or cells: Sf9 insect cells
# Method: Compounds were serially diluted to 6400, 2133, 711, 237, 79, 26, 8.78, 2.93, 0.98 and 0.33 μM in 100% DMSO. Diluted compound was further diluted 20 fold with Kinase Assay Buffer (KAB). Peptide RRRAGALMDASFEEQ-CONH2 (MW 2090) was diluted to 1.2 μM with KAB and ATP was added to 400 μM. PLK1 stock, prepared as described above, was diluted to 3 μg protein/mL with KAB right before it was added to MATRIX 384-Well Polypropylene Black Plates to start the reaction. 20 μL of KAB diluted compounds (or 5% DMSO in KAB for Total and Blank), 20 μL of KAB diluted peptide with ATP and 40 μL of KAB diluted PLK1 solution (KAB without PLK 1 for Blanks) were transferred to each well of the polypropylene plates. The reaction mixtures were incubated at room temperature for 40 minutes. Reactions were stopped by addition of 10 uL Reaction Stopping Buffer (RSB) to each well. Plates were then read on LABCHIP EZ Reader II from Caliper Life Science.
# as §1
# T2 sequence (P53350 whole entry): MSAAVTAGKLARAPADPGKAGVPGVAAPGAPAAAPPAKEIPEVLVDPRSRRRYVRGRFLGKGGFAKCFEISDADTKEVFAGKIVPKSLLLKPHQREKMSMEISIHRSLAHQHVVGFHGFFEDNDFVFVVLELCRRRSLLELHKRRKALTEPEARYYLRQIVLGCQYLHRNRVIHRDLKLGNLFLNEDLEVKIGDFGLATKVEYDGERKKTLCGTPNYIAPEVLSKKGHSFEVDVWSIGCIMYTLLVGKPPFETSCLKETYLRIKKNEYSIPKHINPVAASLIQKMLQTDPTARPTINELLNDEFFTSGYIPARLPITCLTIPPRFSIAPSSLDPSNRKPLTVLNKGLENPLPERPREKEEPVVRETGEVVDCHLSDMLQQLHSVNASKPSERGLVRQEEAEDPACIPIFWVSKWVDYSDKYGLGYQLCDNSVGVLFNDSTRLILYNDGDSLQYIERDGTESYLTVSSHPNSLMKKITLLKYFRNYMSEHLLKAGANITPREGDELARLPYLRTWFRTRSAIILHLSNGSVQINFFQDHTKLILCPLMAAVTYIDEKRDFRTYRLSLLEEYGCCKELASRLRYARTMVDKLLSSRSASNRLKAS
# T1 sequence (P53350 whole entry): as above
Compound,IC50 [1] [nM],IC50 [2] [nM]
"CN1CCN(Cc2ccc3ncn(-c4nc(-c5ccccc5)c(C(N)=O)s4)c3c2)CC1 [Example 1, 2-[6-(4-Methyl-piperazin-1-ylmethyl)-benzoimidazol-1-yl]-4-phenyl-thiazole-5-carboxylic acid amide]",167,
"CN1CCN(Cc2ccc3ncn(-c4nc(-c5cccc(Cl)c5)c(C(N)=O)s4)c3c2)CC1 [Example 2, 4-(3-Chloro-phenyl)-2-[6-(4-methyl-piperazin-1-ylmethyl)-benzoimidazol-1-yl]-thiazole-5-carboxylic acid amide]",13,
"CN1CCN(Cc2ccc3c(c2)ncn3-c2nc(-c3cccc(Cl)c3)c(C(N)=O)s2)CC1 [Example 3, 4-(3-Chloro-phenyl)-2-[5-(4-methyl-piperazin-1-ylmethyl)-benzoimidazol-1-yl]-thiazole-5-carboxylic acid amide]",1100,
"NC(=O)c1sc(-n2cnc3ccc(CN4CCOCC4)cc32)nc1-c1cccc(Cl)c1 [Example 4, 4-(3-Chloro-phenyl)-2-(6-morpholin-4-ylmethyl-benzoimidazol-1-yl)-thiazole-5-carboxylic acid amide]",306,
"NC(=O)c1sc(-n2cnc3ccc(CN4CCN(CCO)CC4)cc32)nc1-c1cccc(Cl)c1 [Example 5, 4-(3-Chloro-phenyl)-2-{6-[4-(2-hydroxy-ethyl)-piperazin-1-ylmethyl]-benzoimidazol-1-yl}-thiazole-5-carboxylic acid amide]",91,
"CN1CCC(NCc2ccc3ncn(-c4nc(-c5cccc(Cl)c5)c(C(N)=O)s4)c3c2)CC1 [Example 7, 4-(3-Chloro-phenyl)-2-{6-[(1-methyl-piperidin-4-ylamino)-methyl]-benzoimidazol-1-yl}-thiazole-5-carboxylic acid amide]",443,
"NC(=O)c1sc(-n2cnc3ccc(CN4CCCCC4)cc32)nc1-c1cccc(Cl)c1 [Example 8, 4-(3-Chloro-phenyl)-2-(6-piperidin-1-ylmethyl-benzoimidazol-1-yl)-thiazole-5-carboxylic acid amide]",3440,
"CN1CCN(CCc2ccc3ncn(-c4nc(-c5cccc(Cl)c5)c(C(N)=O)s4)c3c2)CC1 [Example 9, 4-(3-Chloro-phenyl)-2-{6-[2-(4-methyl-piperazin-1-yl)-ethyl]-benzoimidazol-1-yl}-thiazole-5-carboxylic acid amide]",109,
"CN1CCC(NC(=O)c2ccc3ncn(-c4nc(-c5cccc(Cl)c5)c(C(N)=O)s4)c3c2)CC1 [Example 10, 3-[5-Carbamoyl-4-(3-chloro-phenyl)-thiazol-2-yl]-3H-benzoimidazole-5-carboxylic acid (1-methyl-piperidin-4-yl)-amide]",2020,
"CN1CCN(C(=O)c2ccc3ncn(-c4nc(-c5cccc(Cl)c5)c(C(N)=O)s4)c3c2)CC1 [Example 11, 4-(3-Chloro-phenyl)-2-[6-(4-methyl-piperazine-1-carbonyl)-benzoimidazol-1-yl]-thiazole-5-carboxylic acid amide]",215,
"CN1CCN(Cc2ccc3ncn(-c4nc(-c5ccccc5C(F)(F)F)c(C(N)=O)s4)c3c2)CC1 [Example 17, 2-[6-(4-Methyl-piperazin-1-ylmethyl)-benzoimidazol-1-yl]-4-(2-trifluoromethyl-phenyl)-thiazole-5-carboxylic acid amide]",1140,
"CN1CCN(Cc2ccc3c(c2)ncn3-c2nc(-c3ccc(Cl)cc3)c(C(N)=O)s2)CC1 [Example 18, 4-(4-Chloro-phenyl)-2-[5-(4-methyl-piperazin-1-ylmethyl)-benzoimidazol-1-yl]thiazole-5-carboxylic acid amide]",> 80000,
"CN1CCN(Cc2ccc3ncn(-c4nc(-c5ccc(Cl)cc5)c(C(N)=O)s4)c3c2)CC1 [Example 19, 4-(4-Chloro-phenyl)-2-[6-(4-methyl-piperazin-1-ylmethyl)-benzoimidazol-1-yl]-thiazole-5-carboxylic acid amide]",499,
"CN1CCN(Cc2ccc3ncn(-c4nc(-c5ccccc5Cl)c(C(N)=O)s4)c3c2)CC1 [Example 20, 4-(2-Chloro-phenyl)-2-[6-(4-methyl-piperazin-1-ylmethyl)-benzoimidazol-1-yl]-thiazole-5-carboxylic acid amide]",346,
"NC(=O)c1sc(-n2cnc3ccc(OC4CCNCC4)cc32)nc1-c1cccc(Cl)c1 [Example 21, 4-(3-Chloro-phenyl)-2-[6-(piperidin-4-yloxy)-benzoimidazol-1-yl]-thiazole-5-carboxylic acid amide]",80,
"NC(=O)c1sc(-n2cnc3ccc(OC4CCCCC4)cc32)nc1-c1cccc(Cl)c1 [Example 25, 4-(3-Chloro-phenyl)-2-(6-cyclohexyloxy-benzoimidazol-1-yl)-thiazole-5-carboxylic acid amide]",660,
"NC(=O)c1sc(-n2cnc3ccc(OCCN4CCOCC4)cc32)nc1-c1cccc(Cl)c1 [Example 26, 4-(3-Chloro-phenyl)-2-[6-(2-morpholin-4-yl-ethoxy)-benzoimidazol-1-yl]-thiazole-5-carboxylic acid amide]",166,
"NC(=O)c1sc(-n2cnc3ccc(OCCCN4CCOCC4)cc32)nc1-c1cccc(Cl)c1 [Example 30, 4-(3-Chloro-phenyl)-2-[6-(3-morpholin-4-yl-propoxy)-benzoimidazol-1-yl]-thiazole-5-carboxylic acid amide]",21,
"CN(C)CCCOc1ccc2ncn(-c3nc(-c4cccc(Cl)c4)c(C(N)=O)s3)c2c1 [Example 31, 4-(3-Chloro-phenyl)-2-[6-(3-dimethylamino-propoxy)-benzoimidazol-1-yl]-thiazole-5-carboxylic acid amide]",161,
"CN1CCN(CCCOc2ccc3ncn(-c4nc(-c5cccc(Cl)c5)c(C(N)=O)s4)c3c2)CC1 [Example 33, 4-(3-Chloro-phenyl)-2-{6-[3-(4-methyl-piperazin-1-yl)-propoxy]-benzoimidazol-1-yl}-thiazole-5-carboxylic acid amide]",32,
"COc1cc2ncn(-c3nc(-c4cccc(Cl)c4)c(C(N)=O)s3)c2cc1CN1CCN(C)CC1 [Example 46, 4-(3-Chloro-phenyl)-2-[5-methoxy-6-(4-methyl-piperazin-1-ylmethyl)-benzoimidazol-1-yl]-thiazole-5-carboxylic acid amide]",,13
"CN1CCN(Cc2ccc3ncn(-c4nc(-c5ccc(C(F)(F)F)cc5)c(C(N)=O)s4)c3c2)CC1 [Example 47, 2-[6-(4-Methyl-piperazin-1-ylmethyl)-benzoimidazol-1-yl]-4-(4-trifluoromethyl-phenyl)-thiazole-5-carboxylic acid amide]",661,
"CN1CCN(Cc2ccc3ncn(-c4nc(-c5cccc(C(F)(F)F)c5)c(C(N)=O)s4)c3c2)CC1 [Example 48, 2-[6-(4-Methyl-piperazin-1-ylmethyl)-benzoimidazol-1-yl]-4-(3-trifluoromethyl-phenyl)-thiazole-5-carboxylic acid amide]",59,
"NC(=O)c1sc(-n2cnc3ccc(CN(CCCN4CCOCC4)CCCN4CCOCC4)cc32)nc1-c1cccc(Cl)c1 [Example 49, 2-(6-{[Bis-(3-morpholin-4-yl-propyl)-amino]-methyl}-benzoimidazol-1-yl)-4-(3-chloro-phenyl)-thiazole-5-carboxylic acid amide]",,566
"CN(CCCN1CCOCC1)Cc1ccc2ncn(-c3nc(-c4cccc(Cl)c4)c(C(N)=O)s3)c2c1 [Example 50, 4-(3-Chloro-phenyl)-2-(6-{[methyl-(3-morpholin-4-yl-propyl)-amino]-methyl}-benzoimidazol-1-yl)-thiazole-5-carboxylic acid amide]",,85
